This note sets out measurements from patent publication US20110152166A1, “METHOD OF MODULATION OF PROTEIN PHOSPHORYLATION-DEPENDENT CONFORMATIONAL TRANSITIONS WITH LOW MOLECULAR WEIGHT COMPOUNDS” (priority 2006, published 2011).

Where a chain is given by its changes, count along the chain named. Where two headings read alike, the source gives them in different places. Square brackets hold non-standard residues; d marks the D form. Ends that are not written are not given here. pS = N[C@@H](COP(=O)(O)O)C(=O)O

Experiment in all cases: PDK1 activity assay with T308tide
Assay type in all cases: biochemical

For one assay, the target named is T1, GST-PDK1 [Val127Leu] (Homo sapiens, UniProt O15530, V127L).
T1 construct: different protein constructs, comprising the full length protein or the catalytic domain alone; made in house; host or cells: HEK293 cells (pEBG-2T-PDK1 mutant)
T1 sequence (O15530 1-556 V127L): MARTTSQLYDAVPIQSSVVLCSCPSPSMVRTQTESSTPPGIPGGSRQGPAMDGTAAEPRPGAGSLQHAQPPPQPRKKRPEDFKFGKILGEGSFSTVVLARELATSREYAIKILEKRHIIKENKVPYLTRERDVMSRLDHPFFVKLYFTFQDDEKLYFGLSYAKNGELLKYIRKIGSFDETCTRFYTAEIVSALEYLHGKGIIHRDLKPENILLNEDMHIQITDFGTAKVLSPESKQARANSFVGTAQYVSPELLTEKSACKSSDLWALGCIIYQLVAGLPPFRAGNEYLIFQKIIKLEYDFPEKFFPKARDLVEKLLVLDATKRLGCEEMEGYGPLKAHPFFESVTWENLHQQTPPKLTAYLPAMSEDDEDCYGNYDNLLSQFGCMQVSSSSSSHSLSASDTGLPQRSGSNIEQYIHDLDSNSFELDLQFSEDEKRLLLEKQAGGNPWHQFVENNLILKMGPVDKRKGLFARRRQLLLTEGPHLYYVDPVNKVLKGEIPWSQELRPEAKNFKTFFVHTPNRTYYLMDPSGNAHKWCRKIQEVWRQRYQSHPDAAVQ
Particulars: for activation of PDK1 mutant (in words): PDK1[Val127Leu]. As to the method: (§1) Protein kinase activity tests were performed essentially as previously described (Balendran et al., 2000; Biondi et al., 2000; Biondi et al., 2001). Substrates used were either MBP (for PKCζ or polypeptides (Crosstide for PKB, S6K, SGK and PRK2; T308tide for PDK1, and Kemptide for PKA). PKA (Sigma) was measured in the presence of 100 μM cAMP. Alternatively, assays were performed in a 96 well format, aliquots spotted on p81 phosphocellulose papers (Whatmann), washed in 0.01% phosphoric acid, dried, and then exposed and analysed using Phospholmager technology (Storm, Molecular Dynamics). Activity measurements were performed in duplicates with less than 10% difference between duplicate pairs. Experiments were repeated at least twice, although most of the experiments were repeated multiple times, with similar results.
(§2) PDK1 activity assay was performed in a 20 μl mix containing 50 mM Tris-HCl pH 7.5, 0.05 mg/ml BSA, 0.1% β-mercaptoethanol, 10 mM MgCl2, 100 μM [γ^32P]ATP (5-50 cpm/pmol), 0.003% Brij, 150 ng PDK1, and T308tide (from 0.05 to 1 mM). PDK1 specific activity was approximately 5 U/mg (when measured at 1 mM T308tide). The effect of small compounds on PDK1 was repeated with proteins from different purification batches and with different protein constructs, comprising the full length protein or the catalytic domain alone, with similar results. […] This variability may be due to the PIFtide/compound-stimulated autophosphorylation of the activation loop in certain preparations having less than a 1:1 molar phosphorylation stoichiometry at this site.
(§3) PDK1 activity was measured at room temperature using a polypeptide substrate derived from the activation loop phosphorylation site of PKB, T308tide (0.1 mM). […] GST-PDK1 wt was purified in numerous occasions and the maximal activation level of different batches varied between 3 and 8 fold activation with PIFtide or compound 1. Variations in the basal activity and fold activation were also observed in mutants. Therefore, comparisons in the maximal level of activation between mutants should be performed with care. The data shown are from an experiment where PIFtide concentrations were tested between 50 nM and 20 µM and compound 1 concentrations were between 5 μM and 200 μM, in triplicate. AC50 and max. activity were estimated by fitting the data to a hyperbola using Kaleidagraph software. One Unit of PDK1 activity was defined as the amount required to catalyse the phosphorylation of 1 nmol of the T308tide in 1 min.

In a further assay the target is T2, GST-PDK1 [Ile119Ala] (Homo sapiens, UniProt O15530, I119A).
T2 construct: different protein constructs, comprising the full length protein or the catalytic domain alone; made in house; host or cells: HEK293 cells (pEBG-2T-PDK1 mutant)
T2 sequence (O15530 1-556 I119A): T1 sequence (O15530 1-556 V127L) with I119A, L127V
Particulars: for AC50 / Max. activity: GST-PDK1 [Ile119Ala]. The procedure:
as §1, §2, §3

A further assay addresses T3, GST-PDK1 [Thr148Val] (Homo sapiens, UniProt O15530, T148V).
T3 construct: different protein constructs, comprising the full length protein or the catalytic domain alone; made in house; host or cells: HEK293 cells (pEBG-2T-PDK1 mutant)
T3 sequence (O15530 1-556 T148V): T1 sequence (O15530 1-556 V127L) with L127V, T148V
Particulars: for activation of PDK1 mutant (in words): PDK1[Thr148Val], 20 μM. The procedure: as §1, §2, §3

What is called AC50 is the concentration at which the activity in the assay is half-maximal. Take “REPRILSEEEQEMFRDFDYIADWC [PIFtide, reference compound]”: the Max. activity was determined as 0.99 ± 0.08 U/mg at GST-PDK1 [Val127Leu] (GST-PDK1 [Val127Leu]) and 2.58 ± 0.17 U/mg on GST-PDK1 [Ile119Ala]. Also, the AC50 on GST-PDK1 [Val127Leu] (GST-PDK1 [Val127Leu], read-out: AC50) is 0.12 ± 0.03 µM; on GST-PDK1 [Ile119Ala], 0.66 ± 0.14 µM; on GST-PDK1 [Thr148Val] (GST-PDK1 [Thr148Val]), “INH”. The “activation of PDK1 mutant (in words)” value at GST-PDK1 [Val127Leu] is given as “fully activated”.
On to `O=C(O)CSC(CC(=O)c1ccc(Cl)cc1)c1ccccc1` (stereo not drawn) [Compound 1], for which the AC50 result at GST-PDK1 [Val127Leu] (GST-PDK1 [Val127Leu]) is “No Effect”; at GST-PDK1 [Ile119Ala], 90 ± 20 µM; at GST-PDK1 [Thr148Val] (GST-PDK1 [Thr148Val], read-out: AC50) it was 102 ± 19 µM. Further, the Max. activity is on record as 2.1 ± 0.23 U/mg at GST-PDK1 [Ile119Ala] and 2.44 ± 0.26 U/mg on GST-PDK1 [Thr148Val] (GST-PDK1 [Thr148Val]). For the same compound, the “activation of PDK1 mutant (in words)” value at GST-PDK1 [Thr148Val] is “still activated”.
For “P-HM-RSK: phosphorylated HM polypeptide of RSK: KGAGGGGFRGFS(P)FVA (KGAGGGGFRGF[pS]FVA)”, the “activation of PDK1 mutant (in words)” value with GST-PDK1 [Val127Leu] is on record as “fully activated”; in the assay with GST-PDK1 [Ile119Ala] (Ile119 mutant, P-HM-RSK 20 μM), “completely abolished”; with GST-PDK1 [Thr148Val], “completely abolished”.
